tested on: Per2-dLuc U2OS reporter cells; assay: Per2 assay for evaluating the potency of test compounds (high-throughput circadian assay); type: cell-based; settings: Homo sapiens, U2OS, stable U2OS reporter cells harboring Per2-dLuc; luminescence monitored over 4-5 days at 35° C.
Method in brief: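 Compounds (0.5% DMSO final) were added right after serum-shock synchronization of Per2-dLuc U2OS reporter cells in minimal medium containing 1.0 mM beetle luciferin. Reporter luminescence was followed at 35 °C for 4–5 days to extract rhythm period, amplitude and phase, and EC50 values were obtained from these.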

Structure (SMILES) | EC50
CC1CCCN(CC(O)Cn2c3ccccc3c3ccccc32)S1(=O)=O (stereo not drawn) [Compound 111, N-(3-(9H-Carbazol-9-yl)-2-hydroxypropyl)-6-methyl-1,2-thiazinane-1,1-dioxide] | 84 nM
COC1CCS(=O)(=O)N(CC(O)Cn2c3ccccc3c3ccccc32)C1 (stereo not drawn) [Compound 112, N-(3-(9H-Carbazol-9-yl)-2-hydroxypropyl)-4-methoxy-1,2-thiazinane-1,1-dioxide] | 44 nM
CS(=O)(=O)NCC(O)Cn1c2ccccc2c2ccccc21 (stereo not drawn) [Compound 113, N-(3-(9H-Carbazol-9-yl)-2-hydroxypropyl)methanesulfonamide] | 123 nM
CC(C)(C(O)CN1CCCS1(=O)=O)n1c2ccccc2c2ccccc21 (stereo not drawn) [Compound 114, 2-(3-(9H-Carbazol-9-yl)-2-hydroxy-3-methylbutyl)-isothiazolidine-1,1-dioxide] | 521 nM
CC(O)(CN1CCCS1(=O)=O)Cn1c2ccc(F)cc2c2cc(F)ccc21 (stereo not drawn) [Compound 115, 2-(3-(3,6-Difluoro-9H-carbazol-9-yl)-2-hydroxy-2-methylpropyl)-isothiazolidine-1,1-dioxide] | 232 nM
CC(O)(CN1CCCCS1(=O)=O)Cn1c2ccc(F)cc2c2cc(F)ccc21 (stereo not drawn) [Compound 116, 2-(3-(3,6-Difluoro-9H-carbazol-9-yl)-2-hydroxy-2-methylpropyl)-1,2-thiazinane 1,1-dioxide] | 540 nM
CC(C)N(CC(O)Cn1c2ccc(F)cc2c2cc(F)ccc21)S(C)(=O)=O (stereo not drawn) [Compound 117, N-(3-(3,6-Difluoro-9H-carbazol-9-yl)-2-hydroxypropyl)-N-isopropylmethanesulfonamide] | 127 nM
CS(=O)(=O)N(CC(O)Cn1c2ccc(F)cc2c2cc(F)ccc21)C1CC1 (stereo not drawn) [Compound 118, N-Cyclopropyl-N-(3-(3,6-difluoro-9H-carbazol-9-yl)-2-hydroxypropyl)methanesulfonamide] | 81 nM
CS(=O)(=O)N(CC(O)Cn1c2ccc(F)cc2c2cc(F)ccc21)C1CCC1 (stereo not drawn) [Compound 119, N-Cyclobutyl-N-(3-(3,6-difluoro-9H-carbazol-9-yl)-2-hydroxypropyl)methanesulfonamide] | 37 nM
O=S1(=O)C(F)CCN1CC(O)Cn1c2ccccc2c2ccccc21 (stereo not drawn) [Compound 120, 2-(3-(9H-Carbazol-9-yl)-2-hydroxypropyl)-5-fluoro-isothiazolidine-1,1-dioxide] | 23 nM
O=S1(=O)C(F)CCCN1CC(O)Cn1c2ccccc2c2ccccc21 (stereo not drawn) [Compound 121, 2-(3-(9H-Carbazol-9-yl)-2-hydroxypropyl)-6-fluoro-1,2-thiazinane-1,1-dioxide] | 51 nM
O=S1(=O)N(CC(O)Cn2c3ccccc3c3ccccc32)CCCC1(F)F (stereo not drawn) [Compound 122, 2-(3-(9H-Carbazol-9-yl)-2-hydroxypropyl)-6,6-difluoro-1,2-thiazinane-1,1-dioxide] | 329 nM
O=S1(=O)NCCCN1CC(O)Cn1c2ccccc2c2ccccc21 (stereo not drawn) [Compound 123, 2-(3-(9H-Carbazol-9-yl)-2-hydroxypropyl)-1,2,6-thiadiazinane-1,1-dioxide] | 33 nM
CN1CCCN(CC(O)Cn2c3ccccc3c3ccccc32)S1(=O)=O (stereo not drawn) [Compound 124, 2-(3-(9H-Carbazol-9-yl)-2-hydroxypropyl)-6-methyl-1,2,6-thiadiazinane-1,1-dioxide] | 154 nM
CS(=O)(=O)N(CC(O)Cn1c2ccccc2c2ccccc21)C1(C#N)CC1 (stereo not drawn) [Compound 125, N-(3-(9H-Carbazol-9-yl)-2-hydroxypropyl)-N-(1-cyanocyclopropyl)methanesulfonamide] | 2610 nM
CC1CCC(N(CC(O)Cn2c3ccccc3c3ccccc32)S(C)(=O)=O)CC1 (stereo not drawn) [Compound 126, N-(3-(9H-Carbazol-9-yl)-2-hydroxypropyl)-N-(4-methylcyclohexyl)methanesulfonamide] | 425 nM
CS(=O)(=O)N(CC(O)Cn1c2ccccc2c2ccccc21)C1CCC(F)(F)CC1 (stereo not drawn) [Compound 128, N-(3-(9H-Carbazol-9-yl)-2-hydroxypropyl)-N-(4,4-difluorocyclohexyl)methanesulfonamide] | 372 nM
COC(=O)N1CCC(N(CC(O)Cn2c3ccccc3c3ccccc32)S(C)(=O)=O)CC1 (stereo not drawn) [Compound 129, Methyl 4-(N-(3-(9H-carbazol-9-yl)-2-hydroxypropyl)methylsulfonamido)piperidine-1-carboxylate] | 386 nM
COC(=O)N1CCCC(N(CC(O)Cn2c3ccccc3c3ccccc32)S(C)(=O)=O)C1 (stereo not drawn) [Compound 130, Methyl 3-(N-(3-(9H-carbazol-9-yl)-2-hydroxypropyl)methylsulfonamido)piperidine-1-carboxylate] | 636 nM
CC1CC(N(CC(O)Cn2c3ccccc3c3ccccc32)S(C)(=O)=O)C1 (stereo not drawn) [Compound 131, N-(3-(9H-Carbazol-9-yl)-2-hydroxypropyl)-N-(3-methylcyclobutyl)methanesulfonamide] | 79 nM
CC1(C)CC1N(CC(O)Cn1c2ccccc2c2ccccc21)S(C)(=O)=O (stereo not drawn) [Compound 132, N-(3-(9H-Carbazol-9-yl)-2-hydroxypropyl)-N-(2,2-dimethylcyclopropyl)methanesulfonamide] | 348 nM
CS(=O)(=O)N(CC(O)Cn1c2ccccc2c2ccccc21)C1CC(F)(F)C1 (stereo not drawn) [Compound 133, N-(3-(9H-Carbazol-9-yl)-2-hydroxypropyl)-N-(3,3-difluorocyclobutyl)methanesulfonamide] | 1530 nM
CS(=O)(=O)N(CC(O)Cn1c2ccccc2c2ccccc21)C1CCCC(F)(F)C1 (stereo not drawn) [Compound 134, N-(3-(9H-Carbazol-9-yl)-2-hydroxypropyl)-N-(3,3-difluorocyclohexyl)methanesulfonamide] | 1080 nM
CS(=O)(=O)N(CC(O)Cn1c2ccccc2c2ccccc21)C1CCCCC1(F)F (stereo not drawn) [Compound 135, N-(3-(9H-Carbazol-9-yl)-2-hydroxypropyl)-N-(2,2-difluorocyclohexyl)methanesulfonamide] | 609 nM
CC1CCCC1N(CC(O)Cn1c2ccccc2c2ccccc21)S(C)(=O)=O (stereo not drawn) [Compound 136, N-(3-(9H-Carbazol-9-yl)-2-hydroxypropyl)-N-(2-methylcyclopentyl)methanesulfonamide] | 113 nM
CC1(N(CC(O)Cn2c3ccccc3c3ccccc32)S(C)(=O)=O)CC1 (stereo not drawn) [Compound 137, N-(3-(9H-Carbazol-9-yl)-2-hydroxypropyl)-N-(1-methylcyclopropyl)methanesulfonamide] | 76 nM
CC1(N(CC(O)Cn2c3ccccc3c3ccccc32)S(C)(=O)=O)CCC1 (stereo not drawn) [Compound 138, N-(3-(9H-Carbazol-9-yl)-2-hydroxypropyl)-N-(1-methylcyclobutyl)methanesulfonamide] | 41 nM
COC1CCCC(N(CC(O)Cn2c3ccccc3c3ccccc32)S(C)(=O)=O)C1 (stereo not drawn) [Compound 139, N-(3-(9H-Carbazol-9-yl)-2-hydroxypropyl)-N-(3-methoxycyclohexyl)methanesulfonamide] | 263 nM
CC1(C)CCC(N(CC(O)Cn2c3ccccc3c3ccccc32)S(C)(=O)=O)CC1 (stereo not drawn) [Compound 141, N-(3-(9H-Carbazol-9-yl)-2-hydroxypropyl)-N-(4,4-dimethylcyclohexyl)methanesulfonamide] | 846 nM
CC1CCCC(N(CC(O)Cn2c3ccccc3c3ccccc32)S(C)(=O)=O)C1 (stereo not drawn) [Compound 142, N-(3-(9H-Carbazol-9-yl)-2-hydroxypropyl)-N-(3-methylcyclohexyl)methanesulfonamide] | 813 nM

— patent US10383880B2 (Reset Therapeutics, Inc., priority 2012, dated 2019)
